The record followed here is patent publication US7786137B2, “Bicyclic derivatives as modulators of ion channels” (Vertex Pharmaceuticals Incorporated, priority 2005, dated 2010).

In general, IC50 refers to the concentration needed to halve the response being measured. A higher IC50 goes with a need for much substance.

Sequence of NaV1.3 (Q9NY46 whole entry): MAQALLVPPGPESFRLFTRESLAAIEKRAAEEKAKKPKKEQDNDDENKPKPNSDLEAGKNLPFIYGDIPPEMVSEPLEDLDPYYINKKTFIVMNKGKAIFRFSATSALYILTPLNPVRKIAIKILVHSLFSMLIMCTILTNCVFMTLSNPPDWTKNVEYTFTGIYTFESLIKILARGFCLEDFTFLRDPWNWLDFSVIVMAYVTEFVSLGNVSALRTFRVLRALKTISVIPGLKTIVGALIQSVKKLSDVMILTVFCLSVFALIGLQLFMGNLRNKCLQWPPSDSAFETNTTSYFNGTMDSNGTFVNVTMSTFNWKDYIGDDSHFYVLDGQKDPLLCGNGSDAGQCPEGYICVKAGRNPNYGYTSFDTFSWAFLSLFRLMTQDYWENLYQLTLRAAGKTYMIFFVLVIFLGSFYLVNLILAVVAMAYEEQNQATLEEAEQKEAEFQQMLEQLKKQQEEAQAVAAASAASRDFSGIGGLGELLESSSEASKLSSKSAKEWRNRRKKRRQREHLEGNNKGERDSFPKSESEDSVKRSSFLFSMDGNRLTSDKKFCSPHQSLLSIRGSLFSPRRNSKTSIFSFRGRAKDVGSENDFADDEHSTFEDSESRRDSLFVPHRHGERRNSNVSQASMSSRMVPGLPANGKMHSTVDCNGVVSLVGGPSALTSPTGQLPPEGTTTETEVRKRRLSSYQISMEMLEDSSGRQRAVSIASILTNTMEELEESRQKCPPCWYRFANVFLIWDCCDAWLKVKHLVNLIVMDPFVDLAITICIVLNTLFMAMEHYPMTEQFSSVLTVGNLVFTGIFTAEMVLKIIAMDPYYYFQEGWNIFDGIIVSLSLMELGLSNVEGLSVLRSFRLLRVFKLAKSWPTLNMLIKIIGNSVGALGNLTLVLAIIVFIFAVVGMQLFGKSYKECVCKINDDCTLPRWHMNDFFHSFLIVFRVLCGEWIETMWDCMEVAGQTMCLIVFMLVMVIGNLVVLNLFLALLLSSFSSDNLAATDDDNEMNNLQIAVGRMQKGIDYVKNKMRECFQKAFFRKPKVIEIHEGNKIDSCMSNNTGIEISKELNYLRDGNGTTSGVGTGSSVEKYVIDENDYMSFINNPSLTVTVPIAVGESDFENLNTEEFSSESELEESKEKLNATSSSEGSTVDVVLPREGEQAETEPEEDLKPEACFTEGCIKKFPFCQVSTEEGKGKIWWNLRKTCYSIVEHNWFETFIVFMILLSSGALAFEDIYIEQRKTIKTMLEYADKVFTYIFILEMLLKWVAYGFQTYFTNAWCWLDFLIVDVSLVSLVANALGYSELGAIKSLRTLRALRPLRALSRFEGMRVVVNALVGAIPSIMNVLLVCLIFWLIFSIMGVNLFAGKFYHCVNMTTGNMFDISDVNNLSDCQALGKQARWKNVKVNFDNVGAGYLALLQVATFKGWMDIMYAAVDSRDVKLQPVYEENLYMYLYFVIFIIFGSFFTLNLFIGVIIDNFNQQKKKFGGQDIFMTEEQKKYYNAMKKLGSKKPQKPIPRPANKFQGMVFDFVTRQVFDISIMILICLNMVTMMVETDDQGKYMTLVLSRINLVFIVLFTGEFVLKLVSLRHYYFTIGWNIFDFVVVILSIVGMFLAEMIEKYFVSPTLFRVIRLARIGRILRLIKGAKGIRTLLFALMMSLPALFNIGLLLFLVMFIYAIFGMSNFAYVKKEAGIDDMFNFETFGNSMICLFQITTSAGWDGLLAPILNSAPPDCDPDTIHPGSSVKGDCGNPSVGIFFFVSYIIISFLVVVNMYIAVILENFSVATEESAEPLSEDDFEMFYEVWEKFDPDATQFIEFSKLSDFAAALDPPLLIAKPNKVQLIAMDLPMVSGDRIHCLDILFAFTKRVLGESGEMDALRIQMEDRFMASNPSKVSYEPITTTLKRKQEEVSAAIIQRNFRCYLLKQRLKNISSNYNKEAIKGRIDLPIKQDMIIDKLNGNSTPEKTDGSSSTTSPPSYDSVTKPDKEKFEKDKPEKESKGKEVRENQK

This test concerns the target NaV1.3 (Homo sapiens, UniProt Q9NY46). In words: VIPR optical membrane potential assay, NaV1.3 inhibition. It is filed as cell-based. The arrangement: expressed in transfected cells; host or cells: HEK293. The settings on record: activity against NaV 1.3 channel. How it is done:
Antagonist properties of test compounds were assessed as follows. Cells expressing the NaV of interest were placed into microtiter plates. After an incubation period, the cells were stained with fluorescent dyes sensitive to the transmembrane potential. The test compounds were added to the microtiter plate. The cells were stimulated with either a chemical or electrical means to evoke a NaV dependent membrane potential change from unblocked channels, which was detected and measured with trans-membrane potential-sensitive dyes. Antagonists were detected as a decreased membrane potential response to the stimulus.
The following is an example of how NaV1.3 inhibition activity is measured using the optical membrane potential method#2. Other subtypes are performed in an analogous mode in a cell line expressing the NaV of interest.
HEK293 cells stably expressing NaV1.3 are plated into 96-well microtiter plates. After an appropriate incubation period, the cells are stained with the voltage sensitive dyes CC2-DMPE/DiSBAC2(3) as follows.
2× CC2-DMPE=20 μM CC2-DMPE: 10 mM CC2-DMPE is vortexed with an equivalent volume of 10% pluronic, followed by vortexing in required amount of HBSS containing 10 mM HEPES. Each cell plate will require 5 mL of 2× CC2-DMPE. 50 μL of 2× CC2-DMPE is to wells containing washed cells, resulting in a 10 μM final staining concentration. The cells are stained for 30 minutes in the dark at RT.
2× DISBAC2(3) with ABSC1=6 μM DISBAC2(3) and 1 mM ABSC1: The required amount of 10 mM DISBAC2(3) is added to a 50 ml conical tube and mixed with 1 μL 10% pluronic for each mL of solution to be made and vortexed together. Then HBSS/HEPES is added to make up 2× solution. Finally, the ABSC1 is added.
The 2× DiSBAC2(3) solution can be used to solvate compound plates. Note that compound plates are made at 2× drug concentration. Wash stained plate again, leaving residual volume of 50 μL. Add 50 μL/well of the 2× DiSBAC2(3) w/ABSC1. Stain for 30 minutes in the dark at RT.
The instrument comprises a microtiter plate handler, an optical system for exciting the coumarin dye while simultaneously recording the coumarin and oxonol emissions, a waveform generator, a current- or voltage-controlled amplifier, and a device for inserting electrodes in well. Under integrated computer control, this instrument passes user-programmed electrical stimulus protocols to cells within the wells of the microfilter plate.
Insert or use electrodes into each well to be assayed.
Use the current-controlled amplifier to deliver stimulation wave pulses for 3 s. Two seconds of pre-stimulus recording are performed to obtain the un-stimulated intensities. Five seconds of post-stimulation recording are performed to examine the relaxation to the resting state.
Data are analyzed and reported as normalized ratios of background-subtracted emission intensities measured in the 460 nm and 580 nm channels. Background intensities are then subtracted from each assay channel. Background intensities are obtained by measuring the emission intensities during the same time periods from identically treated assay wells in which there are no cells. The response as a function of time is then reported as the ratios obtained using the following formula: […]
The data is further reduced by calculating the initial (Ri) and final (Rf) ratios. These are the average ratio values during part or all of the pre-stimulation period, and during sample points during the stimulation period. The response to the stimulus ? =Rf/Ri is then calculated.
Control responses are obtained by performing assays in the presence of a compound with the desired properties (positive control), such as tetracaine, and in the absence of pharmacological agents (negative control). Responses to the negative (N) and positive (P) controls are calculated as above. The compound antagonist activity A is defined as:
[formula] where R is the ratio response of the test compound.
The compound `Cc1cccc(OCC(=O)N2CCc3cc(S(=O)(=O)Nc4nccs4)ccc32)c1` [Compound 1] showed an IC50 below 2000 nM.

Take `O=C(COc1ccccc1Cl)N1CCc2cc(S(=O)(=O)Nc3nccs3)ccc21` [Compound 2]: the IC50 was below 2000 nM.

In the case of `O=C(c1ccc(F)cc1)N1Cc2ccc(S(=O)(=O)Nc3nccs3)cc2C1` [Compound 3], the IC50 is 2000 to 5000 nM.

Turning to `Cc1ccc(F)c(C(=O)N2CCc3cc(S(=O)(=O)Nc4nccs4)ccc32)c1` [Compound 4], the IC50 is above 5000 nM.

In turn, `COc1ccc(CC(=O)N2CCc3cc(S(=O)(=O)Nc4nccs4)ccc32)cc1` [Compound 5] gave an IC50 below 2000 nM.

In the case of `O=C(c1ccc(F)c(F)c1F)N1CCc2cc(S(=O)(=O)Nc3ncns3)ccc21` [Compound 6], the IC50 lay in the range of 2000 to 5000 nM.

The compound `Cc1ccc(C(=O)N2CCc3cc(S(=O)(=O)Nc4nccs4)ccc32)cc1` [Compound 7] displayed an IC50 of 2000 to 5000 nM.

Take `CC(Oc1ccccc1)C(=O)N1CCc2ccc(S(=O)(=O)Nc3nccs3)cc2C1` (centres unmarked) [Compound 8]: the IC50 was above 5000 nM.

With `CC(C)(Oc1ccc(Cl)cc1)C(=O)N1CCc2cc(S(=O)(=O)Nc3nccs3)ccc21` [Compound 9], the IC50 was below 2000 nM.

In turn, `COc1ccccc1CC(=O)N1CCc2cc(S(=O)(=O)Nc3nccs3)ccc21` [Compound 10] yielded an IC50 of 2000 to 5000 nM.

The compound `O=C(COc1cccc(Cl)c1)N1Cc2ccc(S(=O)(=O)Nc3nccs3)cc2C1` [Compound 11] displayed an IC50 below 2000 nM.

Regarding `O=C(COc1ccccc1)N1CCc2ccc(S(=O)(=O)Nc3nccs3)cc2C1` [Compound 12], the IC50 was above 5000 nM.

Turning to `O=C(COc1ccc(F)c(Cl)c1)N1CCc2cc(S(=O)(=O)Nc3ncns3)ccc21` [Compound 13], the IC50 was below 2000 nM.

The compound `O=C(COc1ccc(F)cc1)N1CCc2cc(S(=O)(=O)Nc3nccs3)ccc21` [Compound 14] came in with an IC50 below 2000 nM.

For `O=C(CN1CCc2ccccc2C1)N1CCCc2cc(S(=O)(=O)Nc3nccs3)ccc21` [Compound 15], the IC50 is 2000 to 5000 nM.

As for `Cc1ccc(OCC(=O)N2CCc3ccc(S(=O)(=O)Nc4nccs4)cc3C2)c(C)c1` [Compound 16], the IC50 is below 2000 nM.

Compound `CC(C(=O)N1Cc2ccc(S(=O)(=O)Nc3nccs3)cc2C1)n1ccc2ccccc21` (centres unmarked) [Compound 17] gave an IC50 below 2000 nM.

Turning to `COc1cccc(CCC(=O)n2ccc3cc(S(=O)(=O)Nc4nccs4)ccc32)c1` [Compound 18], the 50% inhibitory concentration (IC50) is below 2000 nM.

`O=C(COc1ccc(Cl)c(Cl)c1)n1ccc2cc(S(=O)(=O)Nc3nccs3)ccc21` [Compound 19] came in with an IC50 above 5000 nM.

As for `C[C@H](C(=O)N1CCc2cc(S(=O)(=O)Nc3nccs3)ccc21)n1ccc2ccccc21` [Compound 20], the IC50 was below 2000 nM.

`CC(Oc1cc(Cl)ccc1Cl)C(=O)N1CCc2cc(S(=O)(=O)Nc3nccs3)ccc21` (centres unmarked) [Compound 21] displayed an IC50 below 2000 nM.

`O=S(=O)(Nc1nccs1)c1ccc2c(c1)CCN2CCNc1cnc2ccccc2c1` [Compound 22] had an IC50 above 5000 nM.

Compound `O=C(COc1ccc(Cl)cc1)N1CCc2ccc(S(=O)(=O)Nc3nccs3)cc2C1` [Compound 23] returned an IC50 above 5000 nM.

As to `O=C(CNCc1ccccc1)N1CCc2cc(S(=O)(=O)Nc3nccs3)ccc21` [Compound 24], the IC50 was above 5000 nM.

As for `Cc1ccc(OCC(=O)N2CCc3ccc(S(=O)(=O)Nc4nccs4)cc3C2)cc1` [Compound 25], the IC50 is above 5000 nM.

For the compound `Cc1ccc(CC(=O)N2CCc3cc(S(=O)(=O)Nc4nccs4)ccc32)cc1` [Compound 26], the IC50 was below 2000 nM.

The compound `O=C(COc1ccc(F)c(Cl)c1)N1Cc2ccc(S(=O)(=O)Nc3nccs3)cc2C1` [Compound 27] came in with an IC50 below 2000 nM.

Take `CN(CC(=O)N1CCc2cc(S(=O)(=O)Nc3nccs3)ccc21)c1ccncc1` [Compound 29]: the IC50 is above 5000 nM.

In the case of `O=C(COc1ccc(F)c(Cl)c1)N1CCc2cc(S(=O)(=O)Nc3nccs3)ccc21` [Compound 30], the IC50 is below 2000 nM.

Consider `COc1cccc(CC(=O)N2CCc3cc(S(=O)(=O)Nc4ncns4)ccc32)c1` [Compound 31], for which the IC50 was below 2000 nM.

Take `O=C(CCCOc1ccc(Cl)c(Cl)c1)N1Cc2ccc(S(=O)(=O)Nc3ncns3)cc2C1` [Compound 32]: the IC50 was below 2000 nM.

Compound `O=C(CCCOc1ccc(Cl)cc1Cl)N1CCc2cc(S(=O)(=O)Nc3ncns3)ccc21` [Compound 33] yielded an IC50 below 2000 nM.

Turning to `O=C(c1ccccc1F)N1CCc2cc(S(=O)(=O)Nc3ncns3)ccc21` [Compound 34], the IC50 is above 5000 nM.

Consider `Cc1ccccc1CNCC(=O)N1CCc2cc(S(=O)(=O)Nc3nccs3)ccc21` [Compound 35], for which the IC50 was 2000 to 5000 nM.

The compound `O=C(COc1ccc(F)c(Cl)c1)N1CCCc2cc(S(=O)(=O)Nc3ncns3)ccc21` [Compound 36] returned an IC50 of 2000 to 5000 nM.

`O=C(CN1CCCc2cc(Cl)ccc21)N1Cc2ccc(S(=O)(=O)Nc3ccncn3)cc2C1` [Compound 37] yielded an IC50 of 2000 to 5000 nM.

The compound `CC(Oc1ccccc1)C(=O)N1CCCc2cc(S(=O)(=O)Nc3nccs3)ccc21` (centres unmarked) [Compound 39] registered an IC50 above 5000 nM.

Compound `O=C(c1ccccc1Cl)N1CCc2cc(S(=O)(=O)Nc3nccs3)ccc21` [Compound 40] had an IC50 above 5000 nM.

Regarding `Cc1ccc(CNCC(=O)N2CCc3cc(S(=O)(=O)Nc4nccs4)ccc32)cc1` [Compound 41], the IC50 fell in the range of 2000 to 5000 nM.

In turn, `O=C(COc1ccc(F)cc1)N1CCc2cc(S(=O)(=O)Nc3ncns3)ccc21` [Compound 42] returned an IC50 below 2000 nM.

Turning to `Cc1cccc(CC(=O)N2CCc3cc(S(=O)(=O)Nc4nccs4)ccc32)c1` [Compound 43], the IC50 was below 2000 nM.

The compound `O=C(CN1CCc2ccc(Cl)cc2C1)N1CCc2cc(S(=O)(=O)Nc3nccs3)ccc21` [Compound 44] gave an IC50 below 2000 nM.

In turn, `O=C(COc1ccnc2c(C(F)(F)F)cccc12)N1CCc2ccc(S(=O)(=O)Nc3nncs3)cc2C1` [Compound 45] came in with an IC50 above 5000 nM.

In turn, `Cc1ccc(C(=O)N2CCc3cc(S(=O)(=O)Nc4nccs4)ccc32)cc1` [Compound 47] had an IC50 below 2000 nM.

The compound `O=C(CNc1ccc(F)c(Cl)c1)N1CCc2cc(S(=O)(=O)Nc3nccs3)ccc21` [Compound 48] gave an IC50 of 2000 to 5000 nM.

On to `O=C(COc1ccc(Cl)cc1)N1CCc2cc(S(=O)(=O)Nc3nccs3)ccc21` [Compound 49], for which the IC50 is below 2000 nM.

In the case of `O=C(c1cccc(Cl)c1)N1CCc2cc(S(=O)(=O)Nc3nccs3)ccc21` [Compound 50], the IC50 is below 2000 nM.

Turning to `O=C(Cc1ccc(OC(F)(F)F)cc1)N1CCc2cc(S(=O)(=O)Nc3nccs3)ccc21` [Compound 51], the IC50 was below 2000 nM.

`O=C(COc1ccc(OC(F)(F)F)cc1)N1CCc2ccc(S(=O)(=O)Nc3nccs3)cc2C1` [Compound 52] yielded an IC50 above 5000 nM.

On to `O=C(COc1cccc(Cl)c1)N1CCCc2cc(S(=O)(=O)Nc3ncns3)ccc21` [Compound 53], for which the IC50 was 2000 to 5000 nM.

Turning to `O=C(N1CCc2cc(S(=O)(=O)Nc3nccs3)ccc21)C1(c2ccccc2)CC1` [Compound 54], the IC50 was below 2000 nM.

In the case of `COc1cc(C(=O)n2ccc3cc(S(=O)(=O)Nc4nccs4)ccc32)ccc1C` [Compound 55], the IC50 lay in the range of 2000 to 5000 nM.

`O=C(Cn1ccc2cccc(Cl)c21)N1Cc2ccc(S(=O)(=O)Nc3ccncn3)cc2C1` [Compound 56] returned an IC50 below 2000 nM.

As for `CC(C(=O)N1Cc2ccc(S(=O)(=O)Nc3ncns3)cc2C1)N1CCCc2cc(Cl)ccc21` (centres unmarked) [Compound 57], the IC50 was below 2000 nM.

`C[C@H](C(=O)N1Cc2ccc(S(=O)(=O)Nc3ccc(Cl)nn3)cc2C1)n1ccc2c(F)cccc21` [Compound 58] had an IC50 above 5000 nM.

In the case of `O=C(ON1Cc2ccc(S(=O)(=O)Nc3nccs3)cc2C1)c1cccc(C(F)(F)F)c1` [Compound 59], the IC50 is below 2000 nM.
